Like-named read-outs stand apart in the source and are kept apart here.
How the values were obtained:
Type in all cases: in vivo
aphids, Myzus persicae = assay: Potter tower spray on aphids, knockdown and mortality; conditions: Aphids; for pest or weed control at 0.00625 % strength / pest or weed control at 0.0125 % strength / pest or weed control at 0.025 % strength / pest or weed control at 0.05 % strength / pest or weed control at 0.1 % strength: Myzus persicae, read-out: Average of % corrected affected; for pest or weed control at 0.00625 % strength: 0.00625 % w/v; for pest or weed control at 0.0125 % strength: 0.0125 % w/v; for pest or weed control at 0.025 % strength: 0.025 % w/v; for pest or weed control at 0.05 % strength: 0.05 % w/v; for pest or weed control at 0.1 % strength: 0.1 % w/v
Procedure, shortened: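 Ten aphids (mixed sex and age) per Petri dish on a leaf disc were sprayed by Potter tower with compounds at five concentrations in DMSO. Knockdown and mortality were scored at 24 and 48 hours, five replicates per treatment, alongside carrier-only and untreated controls.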

[1] = system: red spider mites, Tetranychus urticae; assay: Potter tower spray on red spider mites, knockdown and mortality; conditions: Spider mites
Description: The compounds were screened for insecticidal efficacy against aphids, Myzus persicae, Cabbage moth, Mamestra brassicae, diamond black moths, Plutella xylostella, red spider mites, Tetranychus urticae, whitefly, Trialeurodes vaporariorum, in terms of knockdown and mortality.
Myzus persicae, Cabbage moth, Mamestra brassicae, diamond back moths, Plutella xylostella, red spider mites, Tetranychus urticae, whitefly, Trialeurodes vaporariorum, were obtained from specified laboratory cultures. Mixed sex and age aphids and mites, moth larvae and whitefly scale infested leaves were used in the experiments. Environmental conditions were closely monitored and recorded and were within the optimal range of the target species.
The compounds were screened at a range of five concentrations, diluted in DMSO. Some of the compounds were screened against aphids, whitefly and red spider mites and other compounds were screened against cabbage moth, and diamond black moths. A carrier only and an untreated control will also be conducted. Treatments were applied directly onto the insects within Petri dishes, using a potter tower.
Twenty mites and ten aphids, scales and moth larvae were placed within a Petri dish, lined with a suitable leaf disc on a damp cotton wool pad. Scales were already on leaves. The Petri dishes were then sprayed using a potter tower. The number of knocked down and anthropods were assessed at 24 and 48 hours post treatment. Five replicates were be performed for each treatment, for each species.

[2] = system: caterpillars, a mixture of Mamestra brassicae and Lacanobia oleracea; assay: Potter tower spray on caterpillars, knockdown and mortality; conditions: Caterpillars, read-out: Average of % corrected affected; for pest or weed control at 0.00625 % strength: 0.00625 % w/v; for pest or weed control at 0.0125 % strength: 0.0125 % w/v; for pest or weed control at 0.025 % strength: 0.025 % w/v; for pest or weed control at 0.05 % strength: 0.05 % w/v; for pest or weed control at 0.1 % strength: 0.1 % w/v
Procedure, shortened: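 Mixed Mamestra brassicae and Lacanobia oleracea larvae (ten per dish, on leaf disc over damp cotton wool) sprayed directly with a Potter tower at five concentrations in DMSO containing 1% v/v Tween 20, alongside carrier-only and untreated controls. Knockdown and mortality scored at 24 and 48 h post treatment; five replicates per treatment.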

[3] = 24 h, 24 hours post application
[4] = 48 h, 48 hours post application

CCOC(=O)CN(Cc1ccc(Cl)nc1)C1=CC(=O)OC1 [Compound 3, Ethyl 2-[(6-chloro-3-pyridyl)methyl-(5-oxo-2H-furan-3-yl)amino]acetate]
percentage control (aphids, Myzus persicae; 25 g/ha, 24 h): E (A percentage control of from 1 to 19 is indicated by the letter E)
percentage control (aphids, Myzus persicae; 25 g/ha, 48 h): D (A percentage control of from 20 to 39 is indicated by the letter D)
percentage control (aphids, Myzus persicae; 50 g/ha, 24 h): 0%
percentage control (aphids, Myzus persicae; 50 g/ha, 48 h): C (A percentage control of from 40 to 59 is indicated by the letter C)
percentage control (aphids, Myzus persicae; 100 g/ha, 24 h): E (A percentage control of from 1 to 19 is indicated by the letter E)
percentage control (aphids, Myzus persicae; 100 g/ha, 48 h): B (A percentage control of from 60 to 79 is indicated by the letter B)
percentage control (aphids, Myzus persicae; 200 g/ha, 24 h): E (A percentage control of from 1 to 19 is indicated by the letter E)
percentage control (aphids, Myzus persicae; 200 g/ha, 48 h): C (A percentage control of from 40 to 59 is indicated by the letter C)
percentage control (aphids, Myzus persicae; 400 g/ha, 24 h): E (A percentage control of from 1 to 19 is indicated by the letter E)
percentage control (aphids, Myzus persicae; 400 g/ha, 48 h): B (A percentage control of from 60 to 79 is indicated by the letter B)
pest or weed control at 0.00625 % strength (aphids, Myzus persicae; [3]): 1 to 19%
pest or weed control at 0.0125 % strength (aphids, Myzus persicae; [3]): 1 to 19%
pest or weed control at 0.025 % strength (aphids, Myzus persicae; [3]): 1 to 19%
pest or weed control at 0.05 % strength (aphids, Myzus persicae; [3]): 1 to 19%
pest or weed control at 0.1 % strength (aphids, Myzus persicae; [3]): 1 to 19%
pest or weed control at 0.00625 % strength (aphids, Myzus persicae; [4]): 1 to 19%
pest or weed control at 0.0125 % strength (aphids, Myzus persicae; [4]): 1 to 19%
pest or weed control at 0.025 % strength (aphids, Myzus persicae; [4]): 20 to 39%
pest or weed control at 0.05 % strength (aphids, Myzus persicae; [4]): 20 to 39%
pest or weed control at 0.1 % strength (aphids, Myzus persicae; [4]): 20 to 39%
percentage control ([1]; 25 g/ha, 24 h): B (A percentage control of from 60 to 79 is indicated by the letter B)
percentage control ([1]; 25 g/ha, 48 h): C (A percentage control of from 40 to 59 is indicated by the letter C)
percentage control ([1]; 50 g/ha, 24 h): D (A percentage control of from 20 to 39 is indicated by the letter D)
percentage control ([1]; 50 g/ha, 48 h): D (A percentage control of from 20 to 39 is indicated by the letter D)
percentage control ([1]; 100 g/ha, 24 h): C (A percentage control of from 40 to 59 is indicated by the letter C)
percentage control ([1]; 100 g/ha, 48 h): C (A percentage control of from 40 to 59 is indicated by the letter C)
percentage control ([1]; 200 g/ha, 24 h): D (A percentage control of from 20 to 39 is indicated by the letter D)
percentage control ([1]; 200 g/ha, 48 h): D (A percentage control of from 20 to 39 is indicated by the letter D)
percentage control ([1]; 400 g/ha, 24 h): D (A percentage control of from 20 to 39 is indicated by the letter D)
percentage control ([1]; 400 g/ha, 48 h): D (A percentage control of from 20 to 39 is indicated by the letter D)
pest or weed control at 0.00625 % strength [2, 3]: 1 to 19%
pest or weed control at 0.0125 % strength [2, 3]: 1 to 19%
pest or weed control at 0.025 % strength [2, 3]: 1 to 19%
pest or weed control at 0.05 % strength [2, 3]: 1 to 19%
pest or weed control at 0.1 % strength [2, 3]: 1 to 19%
pest or weed control at 0.00625 % strength [2, 4]: 1 to 19%
pest or weed control at 0.0125 % strength [2, 4]: 1 to 19%
pest or weed control at 0.025 % strength [2, 4]: 1 to 19%
pest or weed control at 0.05 % strength [2, 4]: 1 to 19%
pest or weed control at 0.1 % strength [2, 4]: 20 to 39%

From patent US20160212997A1, “AGRICULTURAL CHEMICALS” (REDAG CROP PROTECTION LTD, priority 2013, published 2016)
